Patent US8871789B2, “Method of preventing or treating viral infection” (The United States of America, as represented by the …, priority 2010, dated 2014)

What was measured:
[1] = system: HSV-1; experiment: HSV-1 IE mRNA levels in infected HFF cells; type: cell-based; details: increasing concentration of DMOG, HFF, FIG. 7
Procedure: FIG. 13 is a line graph showing viral IE (ICP4, ICP27, and ICP22) and control (S15, Sp1, and TBP) mRNA levels in HFF cells treated with DMSO or the indicated concentrations of ML324 for 3 hours and infected with HSV-1 (0.1 PFU per cell) for 3 hours. *P<0.0001, two-way ANOVA with Tukey's post hoc test. Data are means±SEM.
HSV-1 IE mRNA levels of ICP4 and ICP27 decrease in cells infected in the presence of DMOG. Human foreskin fibroblast (HFF) cells were infected with HSV-1 at 0.1 PFU/cell for 3 hrs in the presence of increasing concentrations of DMOG. Cells were harvested and the levels of viral IE (ICP4, ICP27) and cell control (s15) mRNAs were assessed by qRT-PCR.
All experiments were performed as described in Liang et al., Sci. Transl. Med. 5, 167ra5 (2013). N-(3-(dimethylamino)propyl)-4-(8-hydroxyquinolin-6-yl)benzamide (designated ML324) has the following characteristics: N-(3-(dimethylamino)propyl)-4-(8-hydroxyquinolin-6-yl)benzamide (1). LC-MS: rt (min)=3.033; ^1H NMR (400 MHz, DMSO-d6) δ 1.84-1.98 (m, 2H), 2.79 (s, 3H), 2.80 (s, 3H), 3.12 (ddd, J=10.2 Hz, 5.4 Hz and 5.2 Hz, 2H), 3.37 (q, 2H), 7.50 (s, 1H), 7.66 (dd, J=8.2 Hz and 4.3 Hz, 1H), 7.84 (s, 1H), 7.88-7.94 (m, 2H), 7.96-8.02 (m, 2H), 8.50 (d, J=8.2 Hz, 1H), 8.71 (t, J=5.6 Hz, 1H), 8.90 (d, J=4.1 Hz, 1H), 9.34 (brs, 1H); HRMS (ESI) m/z (M+H)^+ C21H24N3O2, 350.1867. found 350.1863.

[2] = system: HSV-1; experiment: HSV-1 ICP4 protein levels in infected HeLa cells (quantitative western blot); type: cell-based; details: increasing concentrations of DMOG, HSV-1 0.1 PFU/cell 3 hrs, FIG. 6
Procedure: HSV-1 IE protein levels of ICP4 decrease in cells infected in the presence of DMOG. HeLa cells were infected with HSV-1 at 0.1 PFU/cell for 3 hrs in the presence of increasing concentrations of DMOG. Cells were harvested and the levels of viral IE proteins (ICP4 shown) were determined by quantitative western blot analyses. As the concentration of DMOG is increased, the levels of ICP4 decrease (FIG. 6).

[3] = system: HSV-1 IE promoters; experiment: ChIP of H3K9me3 / histone H3 on HSV-1 IE promoters in HeLa cells; type: cell-based; details: 2 mM DMOG 4 hours before infection; FIG. 8
Procedure: Hela cells were pretreated with 2 mM DMOG for 4 hours prior to infection. Cells were infected with 0.1 pfu/cell of HSV-1 for 3 hrs. Standard Chromatin-Immunoprecipitation procedures were preformed (Liang, Vogel, Narayanan, Peng & Kristie, 2009, Nature Med 15:1312-17) to determine the levels of total histone H3 or tri-methylated histone H3 associated with the indicated viral IE promoters.

[4] = system: CMV; experiment: CMV IE gene expression in HFF cells; type: cell-based; details: increasing concentration of DMOG, FIG. 9
Description: CMV IE gene expression (IE1 and UL37) and control TBP (Tata binding Protein) in the presence of increasing concentrations of DMOG were also studied (FIG. 9). HFF were pretreated with the indicated concentration of DMOG for 3.5 hrs and infected with CMV for 4 hrs. Total RNA was extracted, reverse-transcribed, and cDNAs were quantitated by qPCR using primers to viral IE genes or control genes.

[5] = system: HSV-1; experiment: HSV-1 lytic viral yields from HFF cells; type: cell-based; details: HFF pretreated 5 hrs, HSV-1 0.1 pfu/cell 24 hrs; FIG. 10
Procedure: FIG. 14 is a bar graph showing viral yields from HFF cells treated with DMSO or ML324 for 3 hours and infected with HSV-1 (0.1 PFUper cell) for 24 hours in the presence of the drugs. *P<0.004, one-way ANOVA with Dunnett's post hoc test. Data are means±SEM.
HSV-1 lytic viral yields decrease in the presence of DMOG (FIG. 10). HFF cells were pretreated with DMSO control or JMJD2 inhibitor DMOG for 5 hrs and infected with 0.1 pfu/cell of HSV-1 for 24 hrs in the presence of DMSO or DMOG. The yield of infectious virus derived from each treatment were determined by tittering on Vero cells according to standard procedures.

[6] = system: HSV-1; type: cell-based, Balb/c mice; design: reduction of viral reactivation (viral yield): unit of the concentration uncertain
Procedure: FIG. 18 is a dot plot showing latently infected ganglia that were explanted in the presence of DMSO, ACV (100 mM), or ML324 (50 mM) for 48 hrs. Viral yields were determined from one half of each ganglia at 48 hrs (DMSO, ACV, ML324) and from the other half of each ganglia after drug reversal for an additional 72 hrs (ACV-R, ML324-R) [Wilcoxon matched pairs signed rank test, ACV vs ACV-R n=8, ML324 vs ML324-R n=10]. Data are means±SEM.
FIG. 19 is a dot plot showing viral yields from HSV-1 latently infected trigeminal ganglia that were explanted in the presence of DMSO, or 2 mM DMOG or 50 mM ML324 for 48 hours (DMSO versus DMOG: P=0.0015, Wilcoxon matched-pairs signed rank test; n=12; DMSO versus ML324: P<0.0001; n=20). Data are means±SEM.
Viral yields decrease from HSV-1 latently infected ganglia explanted in the presence of LSD1 or JMJD2 inhibitors (FIG. 11). Balb/c mice were infected with 5×10^6 PFU HSV-1 (strain F) per eye after corneal scarification. Latently infected mice were sacrificed 45 days post clearance of the primary infection and trigeminal ganglia were rapidly explanted into culture in the presence of 2 mM DMOG, 2 mM TCP, or control (DMSO or ACV, acyclovir) for 48 hours. Post explant incubation, the ganglia were homogenized and briefly sonicated. The reactivated viral yield of each ganglia was determined by titering the clarified supernatant on Vero cells. Statistical comparisons were made using Wilcoxon signed rank test (paired ganglia) with a statistical significance of <0.05. Each data point was the result of a single ganglia divided and treated in the presence and absence of DMSO and DMOG or DMSO and TCP. Therefore, a Wilcoxon signed rank test was used to assess differences between each treated and untreated sample. The significant difference between DMSO control and DMOG was p=0.0018. This test used an exact p-value for small sample sizes with an a level of 0.05. n=20. Analyses were made using Prism (V5.0a) and are expressed as the mean+/−s.e.m.

[7] = system: HSV-1; experiment: IE mRNA levels in explanted latently infected ganglia; type: cell-based, mice; details: 7 hours post explant; ICP4 and ICP27 mRNA; FIG. 12
Procedure: Total RNA was isolated and subjected to reverse transcription. The resulting cDNAs were analyzed for viral Immediate Early ICP4 and ICP27 mRNAs relative to an infected cell standard by nested or qPCR. In accordance with an embodiment of the invention, DMOG reduces the levels of viral mRNAs in explanted/reactivated ganglia.
IE gene transcription is repressed in explanted latently infected sensory ganglia in the presence of DMOG (FIG. 12). Total RNA was extracted from ganglia of latently infected mice explanted in the presence of control ACV or DMOG for 7 hours. Random primed cDNA was produced from total RNA using RNAqueous-4PCR and RETROscript (Ambion, Austin, Tex., USA) according to the manufacturer's recommendations. cDNAs were quantitated by nested PCR or qPCR using primers specific for the HSV-1 ICP4 and ICP27 IE mRNAs.

What does the source list for `COC(=O)CNC(=O)C(=O)OC` [DMOG, N-methoxyoxoacetyl-glycine methyl ester]?
mRNA levels of ICP4 and ICP27 ([1]; HSV-1 0.1 PFU/cell 3 hrs): decrease; control mRNA (s15) level decrease [1]: does not; levels of ICP4 protein [2]: decrease; repressive chromatin (H3K9me3, H3) on HSV-1 IE promoters [3]: accumulation of repressive chromatin; control mRNA (TBP) level decrease [4]: does not; CMV IE mRNA levels (IE1/IE7 and UL37) ([4]; HFF pretreated 3.5 hrs, CMV 4 hrs): decrease; HSV-1 lytic viral yields [5]: decrease; viral yield from explanted latently infected ganglia ([6]; 2 mM DMOG, 2 mM TCP or ACV, 48 hours, FIG. 11): decreases; reduction of viral reactivation (viral yield) ([6]; 2 (unit uncertain), 48 hours explant, FIG. 19): ~1.5 log; IE gene transcription in explanted latently infected sensory ganglia [7]: repressed
